Source: ChEMBL document CHEMBL3509421, “FDA drug approval package for diclofenac acid (NDA 22-202 CP, Ref ID: 3374276)”

Columns and labels:
[1] = Mean Cmax value of diclofenac following single oral dosing of 50 mg Cataflam tablet in healthy human; type: ADME, organism-based; set-up: dietary status Fed, dose 50 mg, dosed compound id 2.46815e+06, dosed compound name Diclofenac potassium, gender Mixed, regimen Single, route oral; details: both, plasma
[2] = Geometric mean for Cmax of diclofenac following single oral dosing of 50 mg Cataflam tablet in healthy human; type: ADME, organism-based; set-up: dietary status Fed, dose 50 mg, dosed compound id 2.46815e+06, dosed compound name Diclofenac potassium, gender Mixed, regimen Single, route oral; details: both, plasma
[3] = Median tmax of diclofenac following single oral dosing of 50 mg Cataflam tablet in healthy human; type: ADME, organism-based; set-up: dietary status Fed, dose 50 mg, dosed compound id 2.46815e+06, dosed compound name Diclofenac potassium, gender Mixed, regimen Single, route oral; details: both, plasma, read-out: Median Tmax
[4] = Minimum tmax of diclofenac following single oral dosing of 50 mg Cataflam tablet in healthy human; type: ADME, organism-based, Plasma; set-up: dietary status Fed, dose 50 mg, dosed compound id 2.46815e+06, dosed compound name Diclofenac potassium, gender Mixed, regimen Single, route oral; details: in vivo
[5] = Maximum tmax of diclofenac following single oral dosing of 50 mg Cataflam tablet in healthy human; type: ADME, organism-based, Plasma; set-up: dietary status Fed, dose 50 mg, dosed compound id 2.46815e+06, dosed compound name Diclofenac potassium, gender Mixed, regimen Single, route oral; details: in vivo
[6] = Mean apparent terminal elimination rate constant value of diclofenac following single oral dosing of 50 mg Cataflam tablet in healthy human; type: ADME, organism-based, Plasma; set-up: dietary status Fed, dose 50 mg, dosed compound id 2.46815e+06, dosed compound name Diclofenac potassium, gender Mixed, regimen Single, route oral; details: in vivo
[7] = Geometric mean for apparent terminal elimination rate constant of diclofenac following single oral dosing of 50 mg Cataflam tablet in healthy human; type: ADME, organism-based, Plasma; set-up: dietary status Fed, dose 50 mg, dosed compound id 2.46815e+06, dosed compound name Diclofenac potassium, gender Mixed, regimen Single, route oral; details: in vivo
[8] = Mean AUC (0-t) value of diclofenac following single oral dosing of 50 mg Cataflam tablet in healthy human; type: ADME, organism-based; set-up: dietary status Fed, dose 50 mg, dosed compound id 2.46815e+06, dosed compound name Diclofenac potassium, gender Mixed, regimen Single, route oral; details: both, plasma
[9] = Geometric mean for AUC (0-t) of diclofenac following single oral dosing of 50 mg Cataflam tablet in healthy human; type: ADME, organism-based; set-up: dietary status Fed, dose 50 mg, dosed compound id 2.46815e+06, dosed compound name Diclofenac potassium, gender Mixed, regimen Single, route oral; details: both, plasma
[10] = Mean AUC (0-infinity) value of diclofenac following single oral dosing of 50 mg Cataflam tablet in healthy human; type: ADME, organism-based; set-up: time infinity, dietary status Fed, dose 50 mg, dosed compound id 2.46815e+06, dosed compound name Diclofenac potassium, gender Mixed, regimen Single, route oral; details: both, plasma, read-out: AUC (0-infinity)
[11] = Geometric mean for AUC (0-infinity) of diclofenac following single oral dosing of 50 mg Cataflam tablet in healthy human; type: ADME, organism-based; set-up: dietary status Fed, dose 50 mg, dosed compound id 2.46815e+06, dosed compound name Diclofenac potassium, gender Mixed, regimen Single, route oral, time infinity; details: both, plasma, read-out: AUC (0-infinity)
[12] = (§1) Mean Cmax of diclofenac following single oral dosing of 25 mg diclofenac potassium softgel capsule in healthy human; type: ADME, organism-based; set-up: dietary status Fasting, dose 25 mg, dosed compound id 2.46815e+06, dosed compound name Diclofenac potassium, gender Mixed, regimen Single, route oral, study doses 25/50 mg; details: both, plasma
[13] = as §1; type: ADME, organism-based; set-up: dietary status Fed, dose 25 mg, dosed compound id 2.46815e+06, dosed compound name Diclofenac potassium, gender Mixed, regimen Single, route oral, study doses 25/50 mg; details: both, plasma
[14] = (§2) Mean Cmax of diclofenac following single oral dosing of 50 mg diclofenac potassium softgel capsule in healthy human; type: ADME, organism-based; set-up: dietary status Fasting, dose 50 mg, dosed compound id 2.46815e+06, dosed compound name Diclofenac potassium, gender Mixed, regimen Single, route oral, study doses 25/50 mg; details: both, plasma
[15] = as §2; type: ADME, organism-based; set-up: dietary status Fed, dose 50 mg, dosed compound id 2.46815e+06, dosed compound name Diclofenac potassium, gender Mixed, regimen Single, route oral, study doses 25/50 mg; details: both, plasma
[16] = (§3) Mean AUC (0-t) of diclofenac following single oral dosing of 25 mg diclofenac potassium softgel capsule in healthy human; type: ADME, organism-based; set-up: dietary status Fasting, dose 25 mg, dosed compound id 2.46815e+06, dosed compound name Diclofenac potassium, gender Mixed, regimen Single, route oral, study doses 25/50 mg; details: both, plasma
[17] = as §3; type: ADME, organism-based; set-up: dietary status Fed, dose 25 mg, dosed compound id 2.46815e+06, dosed compound name Diclofenac potassium, gender Mixed, regimen Single, route oral, study doses 25/50 mg; details: both, plasma
[18] = (§4) Mean AUC (0-t) of diclofenac following single oral dosing of 50 mg diclofenac potassium softgel capsule in healthy human; type: ADME, organism-based; set-up: dietary status Fasting, dose 50 mg, dosed compound id 2.46815e+06, dosed compound name Diclofenac potassium, gender Mixed, regimen Single, route oral, study doses 25/50 mg; details: both, plasma
[19] = as §4; type: ADME, organism-based; set-up: dietary status Fed, dose 50 mg, dosed compound id 2.46815e+06, dosed compound name Diclofenac potassium, gender Mixed, regimen Single, route oral, study doses 25/50 mg; details: both, plasma
[20] = (§5) Mean AUC (0-infinity) of diclofenac following single oral dosing of 25 mg diclofenac potassium softgel capsule in healthy human; type: ADME, organism-based; set-up: time infinity, dietary status Fasting, dose 25 mg, dosed compound id 2.46815e+06, dosed compound name Diclofenac potassium, gender Mixed, regimen Single, route oral, study doses 25/50 mg; details: both, plasma, read-out: AUC (0-infinity)
[21] = as §5; type: ADME, organism-based; set-up: time infinity, dietary status Fed, dose 25 mg, dosed compound id 2.46815e+06, dosed compound name Diclofenac potassium, gender Mixed, regimen Single, route oral, study doses 25/50 mg; details: both, plasma, read-out: AUC (0-infinity)
[22] = (§6) Mean AUC (0-infinity) of diclofenac following single oral dosing of 50 mg diclofenac potassium softgel capsule in healthy human; type: ADME, organism-based; set-up: time infinity, dietary status Fasting, dose 50 mg, dosed compound id 2.46815e+06, dosed compound name Diclofenac potassium, gender Mixed, regimen Single, route oral, study doses 25/50 mg; details: both, plasma, read-out: AUC (0-infinity)
[23] = as §6; type: ADME, organism-based; set-up: time infinity, dietary status Fed, dose 50 mg, dosed compound id 2.46815e+06, dosed compound name Diclofenac potassium, gender Mixed, regimen Single, route oral, study doses 25/50 mg; details: both, plasma, read-out: AUC (0-infinity)
[24] = (§7) Mean Tmax of diclofenac following single oral dosing of 25 mg diclofenac potassium softgel capsule in healthy human; type: ADME, organism-based; set-up: dietary status Fasting, dose 25 mg, dosed compound id 2.46815e+06, dosed compound name Diclofenac potassium, gender Mixed, regimen Single, route oral, study doses 25/50 mg; details: both, plasma
[25] = as §7; type: ADME, organism-based; set-up: dietary status Fed, dose 25 mg, dosed compound id 2.46815e+06, dosed compound name Diclofenac potassium, gender Mixed, regimen Single, route oral, study doses 25/50 mg; details: both, plasma
[26] = (§8) Mean Tmax of diclofenac following single oral dosing of 50 mg diclofenac potassium softgel capsule in healthy human; type: ADME, organism-based; set-up: dietary status Fasting, dose 50 mg, dosed compound id 2.46815e+06, dosed compound name Diclofenac potassium, gender Mixed, regimen Single, route oral, study doses 25/50 mg; details: both, plasma
[27] = as §8; type: ADME, organism-based; set-up: dietary status Fed, dose 50 mg, dosed compound id 2.46815e+06, dosed compound name Diclofenac potassium, gender Mixed, regimen Single, route oral, study doses 25/50 mg; details: both, plasma
[28] = Mean Cmax of diclofenac following single oral dosing of 50 mg diclofenac potassium soft gelatin capsule in healthy human; type: ADME, organism-based; set-up: dietary status Fasting, dose 50 mg, dosed compound id 2.46815e+06, dosed compound name Diclofenac potassium, gender Mixed, regimen Single, route oral, study doses 25/50 mg; details: both, plasma
[29] = Mean Cmax of diclofenac following single oral dosing of 25 mg diclofenac potassium soft gelatin capsule in healthy human; type: ADME, organism-based; set-up: dietary status Fasting, dose 25 mg, dosed compound id 2.46815e+06, dosed compound name Diclofenac potassium, gender Mixed, regimen Single, route oral, study doses 25/50 mg; details: both, plasma
[30] = Mean Cmax of diclofenac following single oral dosing of 50 mg Cataflam in healthy human; type: ADME, organism-based; set-up: dietary status Fasting, dose 50 mg, dosed compound id 2.46815e+06, dosed compound name Diclofenac potassium, gender Mixed, regimen Single, route oral, study doses 50 mg; details: both, plasma
[31] = Mean AUC(0-t) of diclofenac following single oral dosing of 50 mg diclofenac potassium soft gelatin capsule in healthy human; type: ADME, organism-based; set-up: dietary status Fasting, dose 50 mg, dosed compound id 2.46815e+06, dosed compound name Diclofenac potassium, gender Mixed, regimen Single, route oral, study doses 25/50 mg; details: both, plasma
[32] = Mean AUC(0-t) of diclofenac following single oral dosing of 25 mg diclofenac potassium soft gelatin capsule in healthy human; type: ADME, organism-based; set-up: dietary status Fasting, dose 25 mg, dosed compound id 2.46815e+06, dosed compound name Diclofenac potassium, gender Mixed, regimen Single, route oral, study doses 25/50 mg; details: both, plasma

Question: Which Cmax [1] does the source give for `O=C(O)Cc1ccccc1Nc1c(Cl)cccc1Cl` [DICLOFENAC] here?
Answer: 0.713 µg/mL

Question: What about the Cmax [2] of the same compound?
Answer: 0.621 µg/mL

Question: What about the Tmax [3] of the same compound?
Answer: 2.33 h

Question: And the “Minimum Tmax” value [4]?
Answer: 0.5 h

Question: And the “Maximum Tmax” value [5]?
Answer: 4.53 h

Question: What about the lambda-z [6] of the same compound?
Answer: 0.332 h⁻¹

Question: And the lambda-z [7]?
Answer: 0.318 h⁻¹

Question: And the AUC(0-t) [8]?
Answer: 1.18 µg·h/mL

Question: What about the AUC(0-t) [9] of the same compound?
Answer: 1.15 µg·h/mL

Question: And the AUC(0-inf) [10]?
Answer: 1.2 µg·h/mL

Question: And the AUC(0-inf) [11]?
Answer: 1.18 µg·h/mL

Question: And the Cmax [12]?
Answer: 1.16 µg/mL

Question: What about the Cmax [13] of the same compound?
Answer: 0.686 µg/mL

Question: What about the Cmax [14] of the same compound?
Answer: 2.37 µg/mL

Question: And the Cmax [15]?
Answer: 1.15 µg/mL

Question: What about the AUC(0-t) [16] of the same compound?
Answer: 0.691 µg·h/mL

Question: And the AUC(0-t) [17]?
Answer: 0.68 µg·h/mL

Question: What about the AUC(0-t) [18] of the same compound?
Answer: 1.52 µg·h/mL

Question: And the AUC(0-t) [19]?
Answer: 1.42 µg·h/mL

Question: What about the AUC(0-inf) [20] of the same compound?
Answer: 0.706 µg·h/mL

Question: And the AUC(0-inf) [21]?
Answer: 0.713 µg·h/mL

Question: What about the AUC(0-inf) [22] of the same compound?
Answer: 1.55 µg·h/mL

Question: And the AUC(0-inf) [23]?
Answer: 1.46 µg·h/mL

Question: And the Tmax [24]?
Answer: 0.49 h

Question: What about the Tmax [25] of the same compound?
Answer: 1.02 h

Question: What about the Tmax [26] of the same compound?
Answer: 0.51 h

Question: And the Tmax [27]?
Answer: 1.28 h

Question: What about the Cmax [28] of the same compound?
Answer: 2.04 µg/mL

Question: What about the Cmax [29] of the same compound?
Answer: 1.12 µg/mL

Question: And the Cmax [30]?
Answer: 1.17 µg/mL

Question: And the AUC(0-t) [31]?
Answer: 1.2 µg·h/mL

Question: And the AUC(0-t) [32]?
Answer: 0.579 µg·h/mL
